Here are results for 1 molecule from patent US20250108023A1, “Products for Masking Bitterness” (The Third People's Hospital of Henan Province, priority 2023, published 2025).

Structures are written as SMILES.

In experiment [1] the target is T1, sodium ion channel of Trpm5 bitter receptor (Mus musculus, UniProt Q9JJH7).
T1 construct: Put the removed tongue in a 2 ml EP tube, add 1-1.5 ml of 0.25% trypsin solution; from tissue; host or cells: cells dissociated with trypsin from mouse tongue
T1 sequence (Q9JJH7 1-1158): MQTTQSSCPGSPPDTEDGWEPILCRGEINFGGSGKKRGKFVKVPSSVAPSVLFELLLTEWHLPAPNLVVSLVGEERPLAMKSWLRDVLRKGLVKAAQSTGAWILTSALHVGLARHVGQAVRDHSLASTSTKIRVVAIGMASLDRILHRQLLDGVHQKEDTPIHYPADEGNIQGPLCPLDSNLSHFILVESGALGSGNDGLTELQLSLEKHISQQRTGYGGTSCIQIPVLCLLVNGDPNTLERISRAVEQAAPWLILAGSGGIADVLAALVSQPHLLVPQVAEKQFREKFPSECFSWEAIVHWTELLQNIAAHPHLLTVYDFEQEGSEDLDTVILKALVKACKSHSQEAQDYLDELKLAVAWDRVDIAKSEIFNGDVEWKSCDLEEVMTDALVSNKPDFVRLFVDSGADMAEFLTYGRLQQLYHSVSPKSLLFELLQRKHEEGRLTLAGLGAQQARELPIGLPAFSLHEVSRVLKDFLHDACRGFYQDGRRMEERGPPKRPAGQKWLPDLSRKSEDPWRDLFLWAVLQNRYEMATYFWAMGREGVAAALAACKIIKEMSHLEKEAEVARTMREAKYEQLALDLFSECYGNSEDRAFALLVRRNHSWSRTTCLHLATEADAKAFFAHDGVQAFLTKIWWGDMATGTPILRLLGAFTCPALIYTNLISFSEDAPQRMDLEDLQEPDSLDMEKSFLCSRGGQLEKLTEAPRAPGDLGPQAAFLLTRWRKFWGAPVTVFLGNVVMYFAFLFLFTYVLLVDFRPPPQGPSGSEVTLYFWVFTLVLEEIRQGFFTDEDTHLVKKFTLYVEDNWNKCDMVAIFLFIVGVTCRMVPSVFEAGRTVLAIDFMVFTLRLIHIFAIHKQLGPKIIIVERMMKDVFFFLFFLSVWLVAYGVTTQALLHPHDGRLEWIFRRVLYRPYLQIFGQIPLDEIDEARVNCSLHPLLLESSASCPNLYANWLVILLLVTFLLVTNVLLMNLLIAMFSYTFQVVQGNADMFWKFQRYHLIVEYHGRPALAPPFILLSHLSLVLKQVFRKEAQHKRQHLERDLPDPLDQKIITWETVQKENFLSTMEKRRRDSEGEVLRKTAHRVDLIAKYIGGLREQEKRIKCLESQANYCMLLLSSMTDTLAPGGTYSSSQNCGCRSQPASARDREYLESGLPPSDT
Kind of experiment: Immunofluorescence experiment of sodium ion channels in mouse tongue cells stimulated with bitter agent. Format: cell-based, mice. The method, then:
The mouse was killed by dislocation, and the tongue was removed (minimizing tongue bleeding), disinfected with alcohol for 2 minutes (adding sodium citrate for anticoagulation), and washed with D-Hanks solution or rinsed with 10 ml of saline solution drawn by a syringe.
Take out the centrifuge tube from the constant temperature incubator, shake for 2 minutes, blow the undigested tongue several times with the gun tip, take out the tongue, cover it with the EP tube cap, put it in a centrifuge, centrifuge at 3000 rpm for 3 minutes, discard the supernatant, add cell culture medium (containing 10% inactivated serum), blow and disperse the cells, and place it in a 37° C. constant temperature incubator for 30 min to allow the cells to recover.
(1) Take out the prepared ENG-2 AM storage solution and warm it to room temperature for use, keeping it away from light. The concentration of the pre-prepared stock solution is 2 mM and it is stored at −18° C. for future use.
(2) Dilute the ENG-2 AM+DMSO stock solution to a […] working solution using serum-free culture medium.
(3) Load the probe in a serum-free culture medium containing an appropriate concentration of AM probe.
Take out the cells from the incubator, centrifuge, and discard the culture medium. Wash the cells once with D-Hanks solution, centrifuge, and discard the culture medium. Add 1 ml of culture medium again, then add 300 ul of sodium ion probe dilution solution, blow and disperse the cells, and incubate the cells at room temperature or 37° C. for 1 hour.
At the end of incubation, centrifuge at 100 rpm for 2 minutes, discard the supernatant, add 500 ul of cell culture medium without AM probe, blow and disperse the cells, and incubate for 20-60 min to ensure that the cells completely deesterify the AM group.
(4) Take 10 ul of incubation solution and drop it into the center of the cell counting plate, cover it with a slide, and observe it under a fluorescence microscope.
(5) Use a low-power microscope to find the cells, open the fluorescence path, detect the fluorescence signal with a fluorescence microscope, change to a high-power microscope, find the appropriate observation cells, observe and take pictures to record the initial signal.
(2) Experimental drugs: Add 5 ul of the tested drug to one side of the cover glass on the cell counting plate, use absorbent paper to absorb water on the opposite side, let the solution soak the cells, and then use a fluorescence microscope to observe and take 3-5 photos, one every 1-2 minutes; then add 5 ul of the standard bitter drug to one side of the cover glass on the cell counting plate, use absorbent paper to absorb water on the opposite side, let the solution soak the cells, and then use a fluorescence microscope to observe and take 3-5 photos, one every 1-2 minutes.
(5) Data analysis: Use Image J-Fiji software to analyze the images, compare the average values of the fluorescence pixels, remove the base number and compare them in the table, draw FIGS. 4-6, and use SPSS18.0 to perform chi-square tests to compare the differences between the data groups.

The target in a further experiment is T2, TRPM5 (Mus musculus, UniProt Q9JJH7).
T2 construct: host or cells: mouse taste cells
T2 sequence (Q9JJH7 1-1158): T1 sequence (Q9JJH7 1-1158)
The following applies: TPPO 5 μM; cited from earlier work.

[2] abbreviates: Bitterant 60 s (2% metronidazole solution).
The mark [3] stands for this setting: Bitterant 120 s (2% metronidazole solution).
The mark [4] stands for this setting: Bitterant 180 s (2% metronidazole solution).

Consider `O=P(c1ccccc1)(c1ccccc1)c1ccccc1` [Triphenylphosphine oxide, reference compound], for which the “average value of fluorescence brightness” value in experiment [1] (Addition of drugs) is 88.789; in experiment [1] (setting [2]) it was 88.608; in experiment [1] (setting [3]), 88.598; in experiment [1] (setting [4]) it was 88.583; in experiment [1] (Initial (before addition of drug), sodium ion dye ENG-2 AM), 88.898. Further, the “average value of fluorescence brightness, base number removed” value is −0.243 in experiment [1] (Addition of drugs); −0.308 in experiment [1] (setting [2]); −1.322 in experiment [1] (setting [3]); −1.384 in experiment [1] (setting [4]); 0 in experiment [1] (Initial). The “blocking effect on the sodium ion channel (result analysis in words)” value in experiment [1] (judged from change of sodium ion fluorescence after bitter drug) is “sodium ion channel is blocked”. In addition, the “remaining taste-evoked Na^+ responses” value at TRPM5 was “abolished”.
